Like-named read-outs stand apart in the source and are kept apart here.
What was measured:
Assay in all cases: Kinase selectivity, P33-radiolabeled assay
Format in all cases: biochemical
Aurora B = molecular target: T1, Aurora B (Homo sapiens, UniProt Q96GD4)
T1 construct: purchased Reaction Biology Corp
Procedure, shortened: (§1)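 Duplicate single-concentration testing used 10 μM compound. The ATP concentration was also 10 μM.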

DAPK1 = molecular target: T2, DAPK1 (Homo sapiens, UniProt P53355); conditions: 10 μM ATP
T2 construct: purchased Reaction Biology Corp
Procedure, shortened: as §1

DYRK2 = molecular target: T3, DYRK2 (Homo sapiens, UniProt Q92630); conditions: 10 μM ATP
T3 construct: purchased Reaction Biology Corp
T3 sequence (Q92630 1-601): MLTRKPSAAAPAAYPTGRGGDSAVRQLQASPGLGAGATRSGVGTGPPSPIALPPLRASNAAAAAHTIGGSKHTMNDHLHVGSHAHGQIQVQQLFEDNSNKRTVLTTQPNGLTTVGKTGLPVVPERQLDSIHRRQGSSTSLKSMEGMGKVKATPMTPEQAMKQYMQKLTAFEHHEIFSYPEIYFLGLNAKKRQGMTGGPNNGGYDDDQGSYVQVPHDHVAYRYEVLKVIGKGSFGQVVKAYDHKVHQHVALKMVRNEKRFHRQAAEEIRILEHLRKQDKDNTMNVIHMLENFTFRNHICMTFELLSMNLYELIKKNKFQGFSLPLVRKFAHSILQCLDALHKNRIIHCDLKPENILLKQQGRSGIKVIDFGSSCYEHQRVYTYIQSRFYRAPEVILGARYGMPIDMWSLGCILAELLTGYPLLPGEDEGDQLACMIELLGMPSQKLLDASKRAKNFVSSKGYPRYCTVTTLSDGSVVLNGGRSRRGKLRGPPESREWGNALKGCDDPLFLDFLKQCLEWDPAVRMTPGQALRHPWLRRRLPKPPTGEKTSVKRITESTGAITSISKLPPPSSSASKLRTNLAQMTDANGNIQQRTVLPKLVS
Procedure, shortened: as §1

GRK7 = molecular target: T4, GRK7 (Homo sapiens, UniProt Q8WTQ7); conditions: 10 μM ATP
T4 construct: purchased Reaction Biology Corp
T4 sequence (Q8WTQ7 1-553): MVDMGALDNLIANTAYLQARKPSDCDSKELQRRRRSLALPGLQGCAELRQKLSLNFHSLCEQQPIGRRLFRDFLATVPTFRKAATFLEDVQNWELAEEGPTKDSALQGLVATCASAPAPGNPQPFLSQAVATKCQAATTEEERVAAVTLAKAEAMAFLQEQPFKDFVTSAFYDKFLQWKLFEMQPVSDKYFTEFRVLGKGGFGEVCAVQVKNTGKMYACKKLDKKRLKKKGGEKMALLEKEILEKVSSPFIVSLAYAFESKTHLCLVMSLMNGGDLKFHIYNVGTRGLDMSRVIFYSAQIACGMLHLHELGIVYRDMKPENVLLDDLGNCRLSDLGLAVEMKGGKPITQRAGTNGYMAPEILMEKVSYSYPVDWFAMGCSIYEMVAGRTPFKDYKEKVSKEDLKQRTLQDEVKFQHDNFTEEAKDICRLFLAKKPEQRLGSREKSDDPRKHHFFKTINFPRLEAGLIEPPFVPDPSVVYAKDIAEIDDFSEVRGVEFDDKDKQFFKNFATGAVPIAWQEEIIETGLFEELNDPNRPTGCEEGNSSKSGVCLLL
Procedure, shortened: as §1

MARK4 = molecular target: T5, MARK4 (Homo sapiens, UniProt Q96L34); conditions: 10 μM ATP
T5 construct: purchased Reaction Biology Corp
T5 sequence (Q96L34 1-752): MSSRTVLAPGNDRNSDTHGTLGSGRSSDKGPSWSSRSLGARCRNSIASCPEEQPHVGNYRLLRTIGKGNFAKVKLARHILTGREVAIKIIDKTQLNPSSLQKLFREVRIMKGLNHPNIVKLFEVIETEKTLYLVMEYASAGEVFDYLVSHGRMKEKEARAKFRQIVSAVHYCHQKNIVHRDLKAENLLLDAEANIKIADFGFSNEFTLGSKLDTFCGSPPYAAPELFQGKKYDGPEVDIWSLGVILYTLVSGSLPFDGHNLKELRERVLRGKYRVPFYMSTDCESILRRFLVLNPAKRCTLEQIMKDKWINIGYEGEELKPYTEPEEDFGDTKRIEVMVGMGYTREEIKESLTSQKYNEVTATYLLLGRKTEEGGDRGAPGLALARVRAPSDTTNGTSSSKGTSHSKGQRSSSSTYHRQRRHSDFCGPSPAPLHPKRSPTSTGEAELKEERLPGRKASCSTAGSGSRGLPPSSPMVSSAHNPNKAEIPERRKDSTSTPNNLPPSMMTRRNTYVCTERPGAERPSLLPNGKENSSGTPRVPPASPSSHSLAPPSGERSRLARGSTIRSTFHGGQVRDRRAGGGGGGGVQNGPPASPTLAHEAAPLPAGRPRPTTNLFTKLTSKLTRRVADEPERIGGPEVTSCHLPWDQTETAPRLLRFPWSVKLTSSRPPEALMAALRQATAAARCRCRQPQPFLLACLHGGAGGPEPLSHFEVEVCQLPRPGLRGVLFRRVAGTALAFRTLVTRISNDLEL
Procedure, shortened: as §1

PAK4 = molecular target: T6, PAK4 (Homo sapiens, UniProt O96013); conditions: 10 μM ATP
T6 construct: purchased Reaction Biology Corp
Procedure, shortened: as §1

RSK2 = molecular target: T7, RSK2 (Homo sapiens, UniProt P51812); conditions: 10 μM ATP
T7 construct: purchased Reaction Biology Corp
Procedure, shortened: as §1

TSSK2 = molecular target: T8, TSSK2 (Homo sapiens, UniProt Q96PF2); conditions: 10 μM ATP
T8 construct: purchased Reaction Biology Corp
T8 sequence (Q96PF2 1-358): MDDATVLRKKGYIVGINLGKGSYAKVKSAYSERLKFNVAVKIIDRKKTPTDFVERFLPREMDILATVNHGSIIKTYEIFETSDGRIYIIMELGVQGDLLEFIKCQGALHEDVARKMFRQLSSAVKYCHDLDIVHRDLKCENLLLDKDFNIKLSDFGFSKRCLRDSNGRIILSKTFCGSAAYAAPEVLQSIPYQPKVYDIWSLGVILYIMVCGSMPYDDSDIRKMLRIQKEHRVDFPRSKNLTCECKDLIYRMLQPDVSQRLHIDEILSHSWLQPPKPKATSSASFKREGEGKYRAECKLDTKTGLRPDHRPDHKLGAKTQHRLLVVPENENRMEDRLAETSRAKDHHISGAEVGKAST
Procedure, shortened: as §1

[1] = read-out: % Enzyme Activity (relative to DMSO controls) AVG
[2] = read-out: % Enzyme Activity (relative to DMSO controls) Data 1
[3] = read-out: % Enzyme Activity (relative to DMSO controls) Data 2

T6 sequence (O96013 whole entry): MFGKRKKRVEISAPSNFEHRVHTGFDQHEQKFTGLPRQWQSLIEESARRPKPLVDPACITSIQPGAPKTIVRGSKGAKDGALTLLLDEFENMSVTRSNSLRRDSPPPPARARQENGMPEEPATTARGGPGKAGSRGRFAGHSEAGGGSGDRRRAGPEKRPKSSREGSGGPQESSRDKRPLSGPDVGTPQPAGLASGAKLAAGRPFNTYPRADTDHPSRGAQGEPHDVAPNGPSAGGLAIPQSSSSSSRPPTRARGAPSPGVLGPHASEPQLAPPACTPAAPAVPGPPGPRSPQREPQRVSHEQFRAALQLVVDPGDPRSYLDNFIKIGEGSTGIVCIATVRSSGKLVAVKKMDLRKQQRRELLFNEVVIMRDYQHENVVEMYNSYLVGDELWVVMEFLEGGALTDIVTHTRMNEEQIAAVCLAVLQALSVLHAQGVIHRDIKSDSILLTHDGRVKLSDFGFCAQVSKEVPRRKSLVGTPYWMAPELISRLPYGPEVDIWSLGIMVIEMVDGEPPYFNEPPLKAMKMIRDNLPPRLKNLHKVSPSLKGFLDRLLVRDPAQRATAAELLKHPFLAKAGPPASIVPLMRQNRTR
T2 sequence (P53355 whole entry): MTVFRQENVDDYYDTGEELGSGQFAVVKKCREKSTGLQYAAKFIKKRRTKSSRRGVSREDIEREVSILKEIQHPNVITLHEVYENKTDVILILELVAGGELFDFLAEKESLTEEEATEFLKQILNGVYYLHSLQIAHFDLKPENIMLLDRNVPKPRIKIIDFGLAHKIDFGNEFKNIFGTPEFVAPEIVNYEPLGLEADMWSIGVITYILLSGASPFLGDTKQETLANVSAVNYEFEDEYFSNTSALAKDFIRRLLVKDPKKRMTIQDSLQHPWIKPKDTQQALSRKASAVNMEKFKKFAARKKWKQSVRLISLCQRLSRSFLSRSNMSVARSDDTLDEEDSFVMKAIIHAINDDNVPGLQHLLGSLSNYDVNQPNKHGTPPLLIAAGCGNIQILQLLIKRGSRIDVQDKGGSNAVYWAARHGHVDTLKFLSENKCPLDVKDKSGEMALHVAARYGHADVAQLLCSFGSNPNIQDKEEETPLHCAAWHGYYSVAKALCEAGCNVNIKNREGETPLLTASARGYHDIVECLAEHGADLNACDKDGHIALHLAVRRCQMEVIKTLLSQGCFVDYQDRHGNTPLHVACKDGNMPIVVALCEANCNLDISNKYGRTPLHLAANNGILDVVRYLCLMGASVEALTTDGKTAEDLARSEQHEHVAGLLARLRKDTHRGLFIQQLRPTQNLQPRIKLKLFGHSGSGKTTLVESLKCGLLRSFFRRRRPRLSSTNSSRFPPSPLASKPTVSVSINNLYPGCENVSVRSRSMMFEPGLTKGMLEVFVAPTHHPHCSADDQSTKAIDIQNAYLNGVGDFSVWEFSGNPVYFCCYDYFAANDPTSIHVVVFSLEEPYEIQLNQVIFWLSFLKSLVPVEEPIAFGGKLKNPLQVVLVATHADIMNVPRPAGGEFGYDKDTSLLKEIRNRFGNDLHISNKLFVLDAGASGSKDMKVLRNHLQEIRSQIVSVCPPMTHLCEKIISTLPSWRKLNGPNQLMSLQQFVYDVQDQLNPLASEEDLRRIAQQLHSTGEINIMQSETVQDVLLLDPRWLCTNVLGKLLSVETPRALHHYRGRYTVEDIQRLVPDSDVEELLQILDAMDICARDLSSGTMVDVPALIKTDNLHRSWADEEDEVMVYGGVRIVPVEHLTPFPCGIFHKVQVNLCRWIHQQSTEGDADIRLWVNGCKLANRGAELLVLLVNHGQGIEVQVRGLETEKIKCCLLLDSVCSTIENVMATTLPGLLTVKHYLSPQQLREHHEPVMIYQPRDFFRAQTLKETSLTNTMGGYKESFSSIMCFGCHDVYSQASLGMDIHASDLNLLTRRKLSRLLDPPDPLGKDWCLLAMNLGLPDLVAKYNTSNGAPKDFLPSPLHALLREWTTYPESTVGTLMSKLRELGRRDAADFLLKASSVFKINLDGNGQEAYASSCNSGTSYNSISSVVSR
T7 sequence (P51812 whole entry): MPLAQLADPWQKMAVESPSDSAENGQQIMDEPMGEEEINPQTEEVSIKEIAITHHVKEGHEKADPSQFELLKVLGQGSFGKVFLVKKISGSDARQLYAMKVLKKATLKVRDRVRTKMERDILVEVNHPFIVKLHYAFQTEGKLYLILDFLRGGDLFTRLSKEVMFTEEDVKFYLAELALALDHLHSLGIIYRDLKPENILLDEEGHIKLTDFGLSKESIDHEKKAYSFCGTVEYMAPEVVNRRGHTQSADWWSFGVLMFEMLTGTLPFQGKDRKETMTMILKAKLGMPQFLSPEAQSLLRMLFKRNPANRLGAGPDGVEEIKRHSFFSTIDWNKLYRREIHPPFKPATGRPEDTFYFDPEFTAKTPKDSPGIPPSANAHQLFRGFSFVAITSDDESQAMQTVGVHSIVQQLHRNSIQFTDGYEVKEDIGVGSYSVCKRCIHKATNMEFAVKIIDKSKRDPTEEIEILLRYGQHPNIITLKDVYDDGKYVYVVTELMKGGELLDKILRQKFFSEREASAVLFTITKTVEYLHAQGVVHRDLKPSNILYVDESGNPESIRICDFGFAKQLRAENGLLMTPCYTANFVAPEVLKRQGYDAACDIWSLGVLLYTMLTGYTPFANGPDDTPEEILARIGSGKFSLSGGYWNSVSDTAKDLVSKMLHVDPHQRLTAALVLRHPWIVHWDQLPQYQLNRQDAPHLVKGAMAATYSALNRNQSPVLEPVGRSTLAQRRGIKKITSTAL
T1 sequence (Q96GD4 whole entry): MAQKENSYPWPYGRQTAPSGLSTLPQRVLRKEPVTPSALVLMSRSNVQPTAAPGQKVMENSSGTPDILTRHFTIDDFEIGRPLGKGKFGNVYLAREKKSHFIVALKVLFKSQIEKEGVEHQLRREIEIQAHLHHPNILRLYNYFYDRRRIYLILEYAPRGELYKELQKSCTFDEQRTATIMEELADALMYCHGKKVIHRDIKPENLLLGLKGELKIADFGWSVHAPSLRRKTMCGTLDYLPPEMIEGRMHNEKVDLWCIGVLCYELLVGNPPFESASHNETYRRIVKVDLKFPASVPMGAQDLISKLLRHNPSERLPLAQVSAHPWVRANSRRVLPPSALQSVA

CC(C)(C)C(=O)N1N=CC[C@H]1c1ccccc1 [GSK′963]
remaining activity at 10 µM (Aurora B; 10 uM, 10 μM ATP, read-out: % Enzyme Activity (relative to DMSO controls) Data 1): 104% | remaining activity at 10 µM (Aurora B; 10 uM, 10 μM ATP, read-out: % Enzyme Activity (relative to DMSO controls) Data 2): 98.7% | remaining activity at 10 µM (Aurora B; [1]): 101% | remaining activity at 10 µM (DAPK1; [1]): 70.8% | remaining activity at 10 µM (DAPK1; [2]): 72.5% | remaining activity at 10 µM (DAPK1; [3]): 69.2% | remaining activity at 10 µM (DYRK2; [1]): 97.7% | remaining activity at 10 µM (DYRK2; [2]): 96.9% | remaining activity at 10 µM (DYRK2; [3]): 98.4% | remaining activity at 10 µM (GRK7; [1]): 90.3% | remaining activity at 10 µM (GRK7; [2]): 88.3% | remaining activity at 10 µM (GRK7; [3]): 92.4% | remaining activity at 10 µM (MARK4; [1]): 107% | remaining activity at 10 µM (MARK4; [2]): 105% | remaining activity at 10 µM (MARK4; [3]): 109% | remaining activity at 10 µM (PAK4; [1]): 93% | remaining activity at 10 µM (PAK4; [2]): 95.4% | remaining activity at 10 µM (PAK4; [3]): 90.5% | remaining activity at 10 µM (RSK2; [1]): 106% | remaining activity at 10 µM (RSK2; [2]): 107% | remaining activity at 10 µM (RSK2; [3]): 106% | remaining activity at 10 µM (TSSK2; [1]): 104% | remaining activity at 10 µM (TSSK2; [2]): 102% | remaining activity at 10 µM (TSSK2; [3]): 105%
